Test results: US5905076A, “6-substituted amino-4-oxa-1-azabicyclo [3,2,0] heptan-7-one derivatives as cysteine protease inhibitors” (National Research Council of Canada, priority 1997, dated 1999)

Legend:
cathepsin L = cathepsin L (Rattus norvegicus, UniProt P07154); assay: In vitro inhibition of cathepsin L; type: biochemical; conditions: r rat cathepsin L, substrate N-CBZ-Phe-Arg-AMC, pH 5.0, 10 min incubation at room temperature
Method: In vitro assay procedure for cathepsin L
After 10 min of incubation at room temperature, a 20 μl of 1 mM substrate (N-CBZ-Phe-Arg-AMC, dissolved in DMSO) was added to initiate reaction. Reading is followed up for 10 min at the fluoroscan reader (excitation at 380 nm emission at 460 nm).

cathepsin B = cathepsin B (Rattus norvegicus, UniProt P00787); assay: In vitro inhibition of cathepsin B; type: biochemical; conditions: r rat cathepsin B, substrate N-CBZ-Phe-Arg-AMC, pH 5.1, 10 min incubation at room temperature
Method: In vitro assay procedure for cathepsin B
The compounds of formula I were tested for inhibition of cathepsin B using the known method (A. J. Barret et al., Biochem. J. 1982, 201, 189-198). To a 170 μl of enzyme-buffer mixture (enzyme: r rat cathepsin B, diluted to give approximate 10 F units/min, buffer: 56 mM sodium acetate, 1.124 mM EDTA, 10 mM DTT, pH 5.1) a 10 μL of inhibitor (dissolved in DMSO) was added. After 10 min of incubation at room temperature, a 20 μl of 5 mM substrate (N-CBZ-Phe-Arg-AMC, dissolved in DMSO) was added to initiate reaction. Reading is followed up for 10 min at the fluoroscan reader (excitation at 380 nm emission at 460 nm).
A plot of percentage of inhibition vs inhibitor concentration is obtained, and IC50 is determined using a linear regression calculations (concentration of inhibitor which will give 50% inhibition).

Chain of cathepsin L (P07154 114-334): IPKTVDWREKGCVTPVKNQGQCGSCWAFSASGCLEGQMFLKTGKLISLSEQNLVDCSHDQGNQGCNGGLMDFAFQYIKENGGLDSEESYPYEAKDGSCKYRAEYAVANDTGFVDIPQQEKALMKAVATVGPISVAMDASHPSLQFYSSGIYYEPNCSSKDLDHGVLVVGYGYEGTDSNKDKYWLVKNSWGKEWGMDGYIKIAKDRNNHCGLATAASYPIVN
Chain of cathepsin B (P00787 80-339): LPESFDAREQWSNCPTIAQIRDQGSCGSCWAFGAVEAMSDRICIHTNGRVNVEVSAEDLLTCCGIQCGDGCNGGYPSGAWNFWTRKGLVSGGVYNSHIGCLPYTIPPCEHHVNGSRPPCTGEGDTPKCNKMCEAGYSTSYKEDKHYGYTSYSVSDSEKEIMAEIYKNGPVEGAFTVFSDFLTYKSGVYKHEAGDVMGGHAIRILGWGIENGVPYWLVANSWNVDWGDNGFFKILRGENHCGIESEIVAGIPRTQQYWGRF

Row | Structure (SMILES) | IC50 (cathepsin L) [µM] | IC50 (cathepsin B) [µM]
1 | O=C(N[C@@H]1C(=O)N2CCO[C@H]12)OCc1ccccc1 [Example 1, (5R,6S)-6-benzyloxycarbonylamino-4-oxa-1-azabicyclo[3.2.0]heptan-7-one] | > 50 | > 50
2 | O=C(N[C@@H](Cc1ccccc1)C(=O)N[C@@H]1C(=O)N2CCO[C@H]12)OCc1ccccc1 [Example 2, (5R,6S)-6-(N-benzyloxycarbonyl-L-phenylalanyl)-amino-4-oxa-1-azabicyclo[3.2.0]heptan-7-one] | 0.26 | 4.56
3 | O=C(N[C@@H]1C(=O)N2CCO[C@H]12)[C@@H]1CCCN1C(=O)OCc1ccccc1 [Example 3, (5R,6S)-6-(N-benzyloxycarbonyl-L-prolyl)-amino-4-oxa-1-azabicyclo[3.2.0]heptan-7-one] | 9.4 | > 50
4 | CC[C@H](C)[C@H](NC(=O)OCc1ccccc1)C(=O)N[C@@H]1C(=O)N2CCO[C@H]12 [Example 4, (5R,6S)-6-(N-benzyloxycarbonyl-L-isoleucyl)-amino-4-oxa-1-azabicyclo[3.2.0]heptan-7-one] | 9.88 | > 50
5 | C[C@H](NC(=O)OCc1ccccc1)C(=O)N[C@@H]1C(=O)N2CCO[C@H]12 [Example 5, (5R,6S)-6-(N-benzyloxycarbonyl-L-alanyl)-amino-4-oxa-1-azabicyclo[3.2,0]heptan-7-one] |  | > 50
6 | CC(C)C[C@H](NC(=O)OCc1ccccc1)C(=O)N[C@@H]1C(=O)N2CCO[C@H]12 [Example 6, (5R,6S)-6-(N-benzyloxycarbonyl-L-leucyl)-amino-4-oxa-1-azabicyclo[3.2,0]heptan-7-one] | 0.6 | 30
7 | O=C(NC(C(=O)N[C@@H]1C(=O)N2CCO[C@H]12)c1ccccc1)OCc1ccccc1 (stereo partly drawn) [Example 7, (5R,6S)-6-(N-benzyloxycarbonyl-phenylglycyl)-amino-4-oxa-1-azabicyclo[3.2.0]heptan-7-one] |  | > 50
8 | O=C(N[C@@H](Cc1ccccc1)C(=O)N[C@@H]1C(=O)N2CCO[C@@H]12)OCc1ccccc1 [Example 8, (5S,6S)-6-(N-benzyloxycarbonyl-L-phenylalanyl)-amino-4-oxa-1-azabicyclo[3.2.0]heptan-7-one] |  | 12.2
9 | O=C(CCc1ccccc1)N[C@@H](Cc1ccccc1)C(=O)N[C@@H]1C(=O)N2CC(c3ccccc3)O[C@H]12 (stereo partly drawn) [Example 9, (5R,6S)-6-{N-(3-phenylpropionoyl)-L-phenylalanyl}-amino-3-phenyl-4-oxa-1-azabicyclo[3,2.0]heptan-7-one] | > 50 | > 50
10 | O=C(CCc1ccccc1)N[C@@H](Cc1ccccc1)C(=O)N[C@@H]1C(=O)N2CC(CBr)O[C@@H]12 (stereo partly drawn) [Example 10, (5S,6S)-6-{N-(3-phenylpropionoyl)-L-phenylalanyl}-amino-3-bromomethyl-4-oxa-1-azabicyclo[3.2.0]heptan-7-one] | 0.016 | 1.91
